Results from patent US9000039B2, “Sn-1(3) monoacylglycerides and lipid absorption” (Nestec S.A., priority 2011, dated 2015).

Assay: lipid maldigestion or malabsorption animal model (Orlistat): EPA incorporation in red blood cell lipids
Format: in vivo, rats
Procedure: The inventors tested their concept in a lipid maldigestion/malabsorption animal model. The malabsorption condition was obtained using Orlistat®, a well known pancreatic and gastric lipases inhibitor. Animals were fed with long-chain polyunsaturated fatty acid (LC-PUFA) supplements containing mainly eicosapentaenoic (EPA) acid. Fish oil was used as a source of triacylglycerols and different EPA glycerides, for example those of FIG. 1, were evaluated. At different time intervals the fatty acid profile of red blood cell and plasma lipids was assessed. At the end of the experiment, fatty acid profiles of different tissues were determined. […] However, if LC-PUFA are provided as sn-1(3) MAGs the incorporation in tissue is not altered in conditions of lipid malabsorption/maldigestion.
Treatments: Control rats fed fish oil with or without Orlistat and rats fed with MAGs described in FIG. 1. Values are means±SEM (n=6).
The concept was tested in a lipid maldigestion or malabsorption animal model. The maldigestion or malabsorption condition was obtained using Orlistat, a well known pancreatic and gastric lipases inhibitor. Animals were fed during 21 days with long-chain polyunsaturated fatty acid (LC-PUFAs) supplements containing mainly eicosapentaenoic (EPA) acid. Fish oil was used as a source of triacylglycerols and the different EPA glycerides provided in FIG. 1 and purchased from Cognis GmbH, Germany, were evaluated. Orlistat was given at a level sufficient to decrease lipid absorption by 40%. A group receiving fish oil without Orlistat was used as a positive control. At different time intervals (D-3, D7, D14 and D21), fatty acid profile of red blood cell and plasma lipids were performed. At the end of the experiment, fatty acid profiles of different tissues were determined.
The main objective was to follow the level of EPA in red blood cell and plasma lipids. The main comparison evaluated was the difference in EPA level between groups receiving EPA containing MAGs (FIG. 1) in combination with Orlistat and the positive control group […].

Compound | level of EPA incorporated in red blood cells, compared with the fish oil group (without Orlistat) (rats fed MAGs in combination with Orlistat, day 7, FIG. 2) | level of EPA incorporated in red blood cells, compared with the fish oil+Orlistat group (rats fed MAGs in combination with Orlistat, day 7, all P values lower than 0.05, FIG. 2) | fatty acid absorption compared with fish oil under normal conditions (under maldigestion/malabsorption conditions, FIG. 2) | effect on EPA incorporation in red blood cells (group receiving fish oil in combination or not with Orlistat, validates the model)
CC/C=C\C/C=C\C/C=C\C/C=C\C/C=C\CCCC(=O)OCC(O)CO (stereo not shown) [sn-1(3) monoeicosapentaenoylglycerol, sn-1(3)-monoeicosapentaenoylglycerol] | even higher than the fish oil group | statistically higher | better absorbed | 
CCCCCCCCCCC[C@@H](C[C@@H]1OC(=O)[C@H]1CCCCCC)OC(=O)[C@H](CC(C)C)NC=O [Orlistat, reference compound] |  |  |  | decrease EPA incorporation in red blood cells
